The results in this text go back to patent US20220089663A1, “PROTEINS AND FLUOROPHORE-CONTAINING COMPOUNDS SELECTIVE FOR NaV1.7” (MEMORIAL SLOAN KETTERING CANCER CENTER, priority 2019, published 2022).

The target of one experiment is T1, hNav1.1 (Homo sapiens, UniProt P35498).
T1 construct: host or cells: HEK293
Nature of the experiment: automated whole-cell patch clamp (QPatch 16X), HEK293-hNav1.1. In kind it is cell-based.

For another experiment, the target named is T2, hNav1.7 (Homo sapiens, UniProt Q15858).
T2 construct: host or cells: HEK293
T2 sequence (Q15858 whole entry): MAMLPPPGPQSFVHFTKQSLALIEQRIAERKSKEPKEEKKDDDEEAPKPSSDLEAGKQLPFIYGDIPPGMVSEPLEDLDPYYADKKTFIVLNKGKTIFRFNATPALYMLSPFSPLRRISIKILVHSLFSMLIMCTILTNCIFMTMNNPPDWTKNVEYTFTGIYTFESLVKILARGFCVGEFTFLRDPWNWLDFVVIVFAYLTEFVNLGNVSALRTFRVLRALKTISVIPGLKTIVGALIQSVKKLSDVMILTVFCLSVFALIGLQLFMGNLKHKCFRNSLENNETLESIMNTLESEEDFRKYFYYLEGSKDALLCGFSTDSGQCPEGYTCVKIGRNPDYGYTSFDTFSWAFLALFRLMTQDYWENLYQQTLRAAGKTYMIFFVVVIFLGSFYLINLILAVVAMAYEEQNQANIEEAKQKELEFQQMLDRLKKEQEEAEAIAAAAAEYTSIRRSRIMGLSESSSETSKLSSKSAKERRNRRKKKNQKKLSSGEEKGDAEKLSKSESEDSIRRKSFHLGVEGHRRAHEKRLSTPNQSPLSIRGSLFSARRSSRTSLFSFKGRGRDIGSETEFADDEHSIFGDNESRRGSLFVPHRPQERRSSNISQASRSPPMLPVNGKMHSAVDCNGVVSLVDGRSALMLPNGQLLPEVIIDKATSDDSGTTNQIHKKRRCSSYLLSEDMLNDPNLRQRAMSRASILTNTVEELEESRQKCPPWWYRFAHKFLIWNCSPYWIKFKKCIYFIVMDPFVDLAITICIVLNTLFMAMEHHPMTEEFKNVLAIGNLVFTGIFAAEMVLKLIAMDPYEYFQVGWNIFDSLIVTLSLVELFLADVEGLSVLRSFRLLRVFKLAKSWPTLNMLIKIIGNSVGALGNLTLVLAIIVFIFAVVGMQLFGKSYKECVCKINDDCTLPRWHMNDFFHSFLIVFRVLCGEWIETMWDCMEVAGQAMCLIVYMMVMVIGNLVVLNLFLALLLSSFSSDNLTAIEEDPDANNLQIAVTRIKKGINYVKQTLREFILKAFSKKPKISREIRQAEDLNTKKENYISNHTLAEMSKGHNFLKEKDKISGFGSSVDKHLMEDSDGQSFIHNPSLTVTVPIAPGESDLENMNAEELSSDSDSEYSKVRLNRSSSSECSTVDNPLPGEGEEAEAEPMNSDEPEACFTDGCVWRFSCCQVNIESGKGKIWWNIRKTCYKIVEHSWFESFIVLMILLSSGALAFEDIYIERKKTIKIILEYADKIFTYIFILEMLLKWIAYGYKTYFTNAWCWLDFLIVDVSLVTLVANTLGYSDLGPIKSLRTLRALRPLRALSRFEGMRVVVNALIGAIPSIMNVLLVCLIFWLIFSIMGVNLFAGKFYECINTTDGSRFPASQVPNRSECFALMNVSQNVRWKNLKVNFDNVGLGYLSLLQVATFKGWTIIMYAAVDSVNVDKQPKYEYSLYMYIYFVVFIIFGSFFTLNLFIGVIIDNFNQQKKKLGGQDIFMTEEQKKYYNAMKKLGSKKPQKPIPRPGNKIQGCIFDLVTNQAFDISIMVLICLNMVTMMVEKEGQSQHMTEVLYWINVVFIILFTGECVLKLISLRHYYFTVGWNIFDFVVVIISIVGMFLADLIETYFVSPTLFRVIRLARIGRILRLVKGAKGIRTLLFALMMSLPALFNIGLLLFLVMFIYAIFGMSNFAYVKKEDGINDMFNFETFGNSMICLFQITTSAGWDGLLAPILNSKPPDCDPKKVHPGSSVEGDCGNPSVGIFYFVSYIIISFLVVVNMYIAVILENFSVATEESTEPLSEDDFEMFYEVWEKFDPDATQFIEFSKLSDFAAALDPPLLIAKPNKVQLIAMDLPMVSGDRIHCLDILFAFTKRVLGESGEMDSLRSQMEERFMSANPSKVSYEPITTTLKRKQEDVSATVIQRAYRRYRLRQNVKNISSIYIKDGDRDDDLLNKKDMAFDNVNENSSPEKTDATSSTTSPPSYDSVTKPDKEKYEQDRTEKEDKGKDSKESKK
T2 sequence (Q07699 19-218, further chain): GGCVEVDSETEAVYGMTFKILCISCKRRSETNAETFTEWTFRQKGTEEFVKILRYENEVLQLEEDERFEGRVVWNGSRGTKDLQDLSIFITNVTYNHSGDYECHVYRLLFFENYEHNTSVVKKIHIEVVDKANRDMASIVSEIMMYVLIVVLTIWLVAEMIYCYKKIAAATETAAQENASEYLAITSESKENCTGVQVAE
Nature of the experiment: automated whole-cell patch clamp (QPatch 16X), HEK293-hNav1.7. In kind it is cell-based.

The target in the next experiment is T3, hNav1.3 (Homo sapiens, UniProt Q9NY46).
T3 construct: host or cells: HEK293
The experiment can be described thus: automated whole-cell patch clamp (QPatch 16X), HEK293-hNav1.3. The format is cell-based.

Another experiment deals with T4, hNav1.5 (Homo sapiens, UniProt Q14524).
T4 construct: host or cells: HEK293
T4 sequence (Q14524 whole entry): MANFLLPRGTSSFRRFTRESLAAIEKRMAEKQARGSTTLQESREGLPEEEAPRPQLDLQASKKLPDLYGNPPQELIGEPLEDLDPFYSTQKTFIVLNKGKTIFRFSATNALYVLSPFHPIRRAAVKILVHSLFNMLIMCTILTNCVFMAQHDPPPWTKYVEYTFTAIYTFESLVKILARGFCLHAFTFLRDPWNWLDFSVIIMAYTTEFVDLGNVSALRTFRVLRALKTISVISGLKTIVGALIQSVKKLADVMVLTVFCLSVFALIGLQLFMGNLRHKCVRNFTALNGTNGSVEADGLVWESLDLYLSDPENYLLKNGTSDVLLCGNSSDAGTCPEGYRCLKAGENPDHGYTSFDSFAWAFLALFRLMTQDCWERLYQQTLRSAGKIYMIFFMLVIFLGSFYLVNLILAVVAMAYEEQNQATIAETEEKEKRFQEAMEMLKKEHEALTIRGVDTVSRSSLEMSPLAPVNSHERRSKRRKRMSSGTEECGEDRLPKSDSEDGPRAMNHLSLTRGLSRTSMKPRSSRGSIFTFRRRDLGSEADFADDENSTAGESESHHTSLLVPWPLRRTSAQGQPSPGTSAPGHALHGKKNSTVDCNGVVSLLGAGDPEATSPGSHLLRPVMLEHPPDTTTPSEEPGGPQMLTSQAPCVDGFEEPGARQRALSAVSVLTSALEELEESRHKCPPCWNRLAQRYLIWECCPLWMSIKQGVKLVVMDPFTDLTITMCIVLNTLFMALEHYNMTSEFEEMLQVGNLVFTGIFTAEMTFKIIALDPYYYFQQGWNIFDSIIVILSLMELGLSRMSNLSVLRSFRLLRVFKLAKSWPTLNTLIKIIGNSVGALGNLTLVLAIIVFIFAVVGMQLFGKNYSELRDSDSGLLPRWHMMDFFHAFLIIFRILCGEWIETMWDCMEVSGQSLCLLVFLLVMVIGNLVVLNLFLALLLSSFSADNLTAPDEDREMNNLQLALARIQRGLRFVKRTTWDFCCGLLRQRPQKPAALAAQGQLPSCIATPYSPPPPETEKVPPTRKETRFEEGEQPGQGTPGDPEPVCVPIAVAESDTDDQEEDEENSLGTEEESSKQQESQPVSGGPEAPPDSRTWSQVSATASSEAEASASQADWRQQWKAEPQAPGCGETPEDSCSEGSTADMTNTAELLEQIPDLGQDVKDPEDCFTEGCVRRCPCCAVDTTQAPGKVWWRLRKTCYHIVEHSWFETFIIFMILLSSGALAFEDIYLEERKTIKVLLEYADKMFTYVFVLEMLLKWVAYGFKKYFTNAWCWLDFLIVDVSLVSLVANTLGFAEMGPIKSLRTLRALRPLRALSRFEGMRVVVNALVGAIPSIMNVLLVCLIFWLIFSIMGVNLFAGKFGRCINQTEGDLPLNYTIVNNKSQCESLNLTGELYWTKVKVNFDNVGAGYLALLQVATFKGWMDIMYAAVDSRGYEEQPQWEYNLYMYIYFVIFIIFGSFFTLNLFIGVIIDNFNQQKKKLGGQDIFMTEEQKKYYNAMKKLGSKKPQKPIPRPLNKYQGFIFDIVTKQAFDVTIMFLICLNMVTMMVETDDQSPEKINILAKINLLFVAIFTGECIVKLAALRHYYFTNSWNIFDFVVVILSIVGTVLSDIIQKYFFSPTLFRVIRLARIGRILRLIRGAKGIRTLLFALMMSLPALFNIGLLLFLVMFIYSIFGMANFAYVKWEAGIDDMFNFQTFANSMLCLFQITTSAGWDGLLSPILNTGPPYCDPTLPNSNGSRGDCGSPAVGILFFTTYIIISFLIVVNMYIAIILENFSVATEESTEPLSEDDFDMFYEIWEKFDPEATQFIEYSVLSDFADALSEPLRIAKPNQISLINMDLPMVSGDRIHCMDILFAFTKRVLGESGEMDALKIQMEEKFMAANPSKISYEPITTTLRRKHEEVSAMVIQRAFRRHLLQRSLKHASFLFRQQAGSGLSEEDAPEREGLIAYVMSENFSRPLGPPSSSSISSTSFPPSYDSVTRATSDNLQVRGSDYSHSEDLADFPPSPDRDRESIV
Nature of the experiment: automated whole-cell patch clamp (QPatch 16X), HEK293-hNav1.5. In kind it is cell-based.

A further experiment has as its system CVH mice. Nature of the experiment: visceromotor response (VMR) to colorectal distension in chronic visceral hypersensitivity (CVH) mice. The format is in vivo, mouse. The settings on record: intra-colonic 200 nM. As for the experimental part:
Model of Chronic Visceral Hypersensitivity (CVH). All experiments were performed in accordance with the guidelines of the Animal Ethics Committees of the South Australian Health and Medical Research Institute (SAHMRI) and Flinders University. Male C57 BL/6 mice were used in all experiments.
Colitis was induced by administration of Trinitrobenzene Sulphonic acid (TNBS) as described previously (Castro et al., Gut 66(6):1083-1094 (2017); Osteen et al., Nature 534: 494-499 (2016)). Briefly, 13-week-old mice were fasted overnight with access to 5% glucose solution. After the fasting period, isofluorane anaesthetized mice were administered an intracolonic enema of 0.1 mL TNBS ([…] in 30% EtOH) via a polyethylene catheter inserted 3 cm past the anus. […]
In vivo Visceromotor Responses (VMR) to Colorectal Distension (CRD). […] The EMG electrodes were relayed to a data acquisition system and the signal was recorded (NL100AK headstage), amplified (NL104), filtered (NL 125/126, Neurolog, Digitimer Ltd, bandpass 50-5000 Hz) and digitized (CED 1401, Cambridge Electronic Design, Cambridge, UK) to a PC for off-line analysis using Spike2 (Cambridge Electronic Design). […] To quantify the magnitude of the VMR at each distension pressure, the area under the curve (AUC) during the distension (20 s) was corrected for the baseline activity (AUC pre-distension, 20 s).

For a further experiment, the target named is T5, hNav1.6 (Homo sapiens, UniProt Q9UQD0).
T5 construct: host or cells: HEK293
The experiment can be described thus: automated whole-cell patch clamp (QPatch 16X), HEK293-hNav1.6. The format is cell-based.

`CC[C@H](C)[C@H](NC(=O)[C@H](CCCCN)NC(=O)[C@@H]1CSSC[C@@H]2NC(=O)[C@@H]3CCCN3C(=O)[C@H](CCCNC(=N)N)NC(=O)[C@H](CCC(=O)O)NC(=O)[C@H](CO)NC(=O)[C@H](CC(=O)O)NC(=O)[C@@H]3CSSC[C@H](NC(=O)[C@H](C(C)C)NC(=O)[C@H](CC(C)C)NC(=O)CNC(=O)[C@H](CCC(=O)O)NC(=O)[C@H](CSSC[C@H](NC(=O)[C@@H](N)Cc4ccc(O)cc4)C(=O)N[C@@H](CCC(N)=O)C(=O)N[C@@H](CCCCN)C(=O)N[C@@H](Cc4ccccc4)C(=O)N[C@@H](CC(C)C)C(=O)N[C@@H](Cc4c[nH]c5ccccc45)C(=O)N[C@@H]([C@@H](C)O)C(=O)N3)NC2=O)C(=O)N[C@@H](CCCNC(=N)N)C(=O)N[C@@H](CC(C)C)C(=O)N[C@@H](Cc2c[nH]c3ccccc23)C(=O)N1)C(=O)N[C@@H](CC(N)=O)C(N)=O` [sHsp1a] returned a hNav1.1 currents blocked on hNav1.1 (at 200 nM) of 30%. The inhibition at 2 µM was 75% on hNav1.1 (at 2 μM, read-out: current inhibition hNav1.1); 75% at hNav1.7 (at 2 μM, read-out: current inhibition hNav1.7); below 50% at hNav1.3 (at 2 μM, read-out: max. current inhibition hNav1.3); below 50% at hNav1.5 (at 2 μM, read-out: max. current inhibition hNav1.5); below 50% on hNav1.6 (at 2 μM, read-out: max. current inhibition hNav1.6). Also, the IC50 on hNav1.1 (mean±S.E.M, read-out: pIC50 on hNav1.1 (converted)) is 407 nM; at hNav1.7 (mean±S.E.M, read-out: pIC50 on hNav1.7 (converted)), 10.5 nM; at hNav1.3 (read-out: pIC50 on hNav1.3 (converted)), above 1000 nM; at hNav1.5 (read-out: pIC50 on hNav1.5 (converted)), above 1000 nM; on hNav1.6 (read-out: pIC50 on hNav1.6 (converted)), above 1000 nM. Moreover, the hNav1.7 currents blocked at hNav1.7 (at 200 nM) is 70%. At hNav1.3 (at 200 nM), the “inhibition of hNav1.3 currents” value is given as “did not show any significant inhibition”. Moreover, the “inhibition of hNav1.5 currents” value against hNav1.5 (at 200 nM) is given as “did not show any significant inhibition”. Also, at hNav1.5 (at 2 μM), the “sensitivity of hNav1.5” value is reported as “insensitive”. Moreover, in the experiment on CVH mice, the “VMR to colorectal distension compared to CVH vehicle treated animals” value is given as “significantly reduced the VMR”. For the same compound, the “inhibition of hNav1.6 currents” value against hNav1.6 (at 200 nM) is “did not show any significant inhibition”.
